Results reported in patent US4954502A, “1-indolyalkyl-4-(substituted-pyridinyl)piperazines” (Bristol-Myers Squibb Company, priority 1989, dated 1990).
pIC50: −log10 of the molar value. Counter-ions that a name gives are not always drawn.

What follows are compounds tested against T1, serotonin uptake (Rattus norvegicus, UniProt P31652) (assay: Inhibition of serotonin uptake (in vitro): inhibition of synaptosomal reuptake of tritiated serotonin).
T1 construct: from tissue
Type: biochemical
Procedure: Determination of endogenous monoaminergic re-uptake inhibition values both for serotonin and norepinephrine was accomplished using test methods described by P. Skolnick, et al.. Br. J. Pharmacology (1985), 86, pp. 637-644; with only minor modifications. In vitro IC50 (nM) test values were determined for representative compounds of Formula I based on their inhibition of synaptosomal reuptake of tritiated serotonin. Test data IC50 values lower than 500 nM are considered to reflect activity as an inhibitor of serotonin reuptake. Compounds with Ic50 values lower than 1OO nM comprise preferred compounds.

T1 sequence (P31652 whole entry): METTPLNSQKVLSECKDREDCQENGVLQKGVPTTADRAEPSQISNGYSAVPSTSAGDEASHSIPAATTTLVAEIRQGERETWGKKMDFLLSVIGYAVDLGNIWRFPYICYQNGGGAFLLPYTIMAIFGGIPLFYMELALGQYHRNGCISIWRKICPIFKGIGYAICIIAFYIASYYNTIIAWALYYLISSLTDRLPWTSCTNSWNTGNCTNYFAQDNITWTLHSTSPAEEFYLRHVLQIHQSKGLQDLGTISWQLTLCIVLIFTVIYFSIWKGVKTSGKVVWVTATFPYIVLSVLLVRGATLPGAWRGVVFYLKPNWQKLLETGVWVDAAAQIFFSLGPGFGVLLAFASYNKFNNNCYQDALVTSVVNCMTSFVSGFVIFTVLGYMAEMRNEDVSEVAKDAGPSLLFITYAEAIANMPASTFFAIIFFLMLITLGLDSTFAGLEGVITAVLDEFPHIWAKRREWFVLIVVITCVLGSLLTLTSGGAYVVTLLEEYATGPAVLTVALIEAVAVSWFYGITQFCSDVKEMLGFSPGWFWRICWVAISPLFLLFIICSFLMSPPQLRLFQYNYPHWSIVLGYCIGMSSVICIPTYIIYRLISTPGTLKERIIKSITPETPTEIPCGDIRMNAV

**Q.** `COc1cccc(N2CCN(CCc3c[nH]c4ccccc34)CC2)n1` [Example 16, 1-[2-(1H-indol-3-yl)-ethyl]-4[6-methoxy-2-pyridinyl-piperazine hydrate] was tested. Which pIC50 did it give?
**A.** Its pIC50 is 7.06.

**Q.** How did the pIC50 turn out when `COc1ccc2[nH]cc(CCN3CCN(c4cccc(C(F)(F)F)n4)CC3)c2c1` [Example 44] was run?
**A.** The pIC50 was 6.25.

**Q.** With `NC(=O)c1ccc2[nH]cc(C3=CCC(N4CCN(c5cccc(Cl)n5)CC4)CC3)c2c1` (stereo not shown) [Example 46] as the compound, how does the pIC50 read?
**A.** Its pIC50 is 7.57.

**Q.** How did the pIC50 turn out when `Clc1cccc(N2C[C@H]3C[C@@H]2CN3CCc2c[nH]c3ccccc23)n1` [Example 29] was run?
**A.** Its pIC50 is 6.97.

**Q.** How did the pIC50 turn out when `FC(F)(F)c1cccc(N2CCN(CCc3c[nH]c4ccc(Cl)cc34)CC2)n1` [Example 63] was run?
**A.** Its pIC50 is 6.36.

**Q.** With `Clc1cccc(N2CCN(C3CC=C(c4c[nH]c5ccccc45)CC3)CC2)n1` (stereo not shown) [Example 45] as the compound, how does the pIC50 read?
**A.** Its pIC50 is 7.00.

**Q.** With `COc1cccnc1N1CCN(C(C)CCc2c[nH]c3ccccc23)CC1` (stereo not shown) [Example 68] as the compound, how does the pIC50 read?
**A.** The pIC50 was 7.44.

**Q.** `FC(F)(F)c1cccnc1N1CCN(CCc2c[nH]c3ccccc23)CC1` [Example 17, 1-[2-(1H-indol-3-yl)-ethyl]-4-[3-trifluoromethyl-2-pyridinyl]piperazine hydrochloride] was tested. Which pIC50 did it give?
**A.** Its pIC50 is 7.43.

**Q.** How did the pIC50 turn out when `Fc1ccc2[nH]cc(CCN3CCN(c4cccc(Cl)n4)CC3)c2c1` [Example 41] was run?
**A.** Its pIC50 is 8.55.

**Q.** `FC(F)(F)c1cccc(N2CCN(CCCCc3c[nH]c4ccccc34)CC2)n1` [Example 32] was tested. Which pIC50 did it give?
**A.** Its pIC50 is 6.59.

**Q.** With `COc1cccnc1N1C[C@H]2C[C@@H]1CN2CCc1c[nH]c2ccccc12` [Example 26] as the compound, how does the pIC50 read?
**A.** The pIC50 was 6.97.

**Q.** With `CC(Cc1c[nH]c2ccccc12)N1CCN(c2cccc(Cl)n2)CC1` (stereo not shown) [Example 36, 3-[2-[4-(6-Chloro-2-pyridyl)-1-piperazinyl]propyl]-indole] as the compound, how does the pIC50 read?
**A.** The pIC50 was 7.12.

**Q.** How did the pIC50 turn out when `FC(F)(F)c1ccnc(N2CCN(CCCc3c[nH]c4ccccc34)CC2)c1` [Example 33] was run?
**A.** Its pIC50 is 6.98.

**Q.** How did the pIC50 turn out when `FC(F)(F)c1cccc(N2CCN(CCc3c[nH]c4ccccc34)CC2)n1` [Example 15, 1-[2-(1H-indol-3-yl)-ethyl]-4-6-trifluoromethyl-2-pyridinyl]piperazine hydrochloride] was run?
**A.** Its pIC50 is 7.14.

**Q.** With `COc1cccnc1N1CCN(CCc2c[nH]c3ccccc23)CC1` [Example 18, 1-[2-(1H-indol-3-yl)-ethyl]-4-[3-methoxy-2-pyridinyl]-piperazine] as the compound, how does the pIC50 read?
**A.** The pIC50 was 7.89.

**Q.** With `CC(CCc1c[nH]c2ccccc12)N1CCN(c2cccc(Cl)n2)CC1` (stereo not shown) [Example 67] as the compound, how does the pIC50 read?
**A.** The pIC50 was 6.85.

**Q.** How did the pIC50 turn out when `COc1cccnc1N1CCN(CCc2c[nH]c3ccc(F)cc23)CC1` [Example 39] was run?
**A.** The pIC50 was 9.70.

**Q.** How did the pIC50 turn out when `COc1ccc2c(CCN3CCN(c4ncccc4OC)CC3)c[nH]c2c1` [Example 66] was run?
**A.** Its pIC50 is 7.44.

**Q.** `COc1ccc2[nH]cc(CCN3CCN(c4ncccc4OC)CC3)c2c1` [Example 38] was tested. Which pIC50 did it give?
**A.** The pIC50 was 7.96.

**Q.** `FC(F)(F)c1ccnc(N2CCN(CCc3c[nH]c4ccccc34)CC2)c1` [Example 37] was tested. Which pIC50 did it give?
**A.** The pIC50 was 6.41.

**Q.** With `COc1cccnc1N1CCN(CCc2c[nH]c3ccccc23)C(C)C1` (stereo not shown) [Example 64] as the compound, how does the pIC50 read?
**A.** Its pIC50 is over 9.00.

**Q.** `COc1cccnc1N1CCN(CCCc2cn(C)c3ccccc23)CC1` [Example 50] was tested. Which pIC50 did it give?
**A.** Its pIC50 is 8.43.

**Q.** With `Fc1ccc2[nH]cc(CCN3CCN(c4cccc(C(F)(F)F)n4)CC3)c2c1` [Example 43] as the compound, how does the pIC50 read?
**A.** The pIC50 was 7.14.

**Q.** How did the pIC50 turn out when `Clc1ccc2[nH]cc(CCN3CCN(c4cccc(Cl)n4)CC3)c2c1` [Example 57] was run?
**A.** Its pIC50 is 6.78.

**Q.** `Clc1ccc(N2CCN(CCc3c[nH]c4ccccc34)CC2)nc1` [Example 54] was tested. Which pIC50 did it give?
**A.** Its pIC50 is 7.52.

**Q.** `Clc1cccc(N2CCN(CCc3c[nH]c4ccccc34)CC2)n1` [Example 14, 4-[6-Chloro-2-pyridinyl]-1-[2-(1H-indol-3-yl)-ethyl]piperazine hydrochloride] was tested. Which pIC50 did it give?
**A.** The pIC50 was 7.13.

**Q.** `Clc1cccc(N2CCN(CCCCc3c[nH]c4ccccc34)CC2)n1` [Example 31] was tested. Which pIC50 did it give?
**A.** The pIC50 was 7.57.

**Q.** With `COc1cc2[nH]cc(CCN3CCN(c4cccc(C(F)(F)F)n4)CC3)c2cc1OC` [Example 69] as the compound, how does the pIC50 read?
**A.** The pIC50 was 6.32.

**Q.** How did the pIC50 turn out when `COc1cccnc1N1CCN(CCc2c[nH]c3ccccc23)C(C)C1` (stereo not shown) [Example 25] was run?
**A.** The pIC50 was 8.07.

**Q.** `Clc1cccc(N2CCN(CCCc3c[nH]c4ccccc34)CC2)n1` [Example 19, 1-(6-Chloro-2-pyridinyl)-4-[3-(1H-indol-3-yl)propyl]piperazine hydrochloride] was tested. Which pIC50 did it give?
**A.** The pIC50 was 7.01.

**Q.** How did the pIC50 turn out when `COc1cccnc1N1C[C@H]2C[C@@H]1CN2CCCc1c[nH]c2ccccc12` [Example 35] was run?
**A.** The pIC50 was 6.82.

**Q.** `COc1ccc(Cl)nc1N1CCN(CCCc2c[nH]c3ccccc23)CC1` [Example 71] was tested. Which pIC50 did it give?
**A.** Its pIC50 is 8.31.

**Q.** `Cn1cc(CCN2CCN(c3cccc(Cl)n3)CC2)c2ccccc21` [Example 55] was tested. Which pIC50 did it give?
**A.** Its pIC50 is 6.90.

**Q.** With `COc1cccnc1N1CCN(CCc2c[nH]c3ccc(Cl)cc23)CC1` [Example 56] as the compound, how does the pIC50 read?
**A.** The pIC50 was over 9.00.

**Q.** How did the pIC50 turn out when `COc1cccnc1N1C[C@@H]2C[C@H]1CN2CCc1c[nH]c2ccccc12` [Example 27] was run?
**A.** The pIC50 was 7.90.

**Q.** With `Fc1ccc2[nH]cc(C3=CCC(N4CCN(c5cccc(Cl)n5)CC4)CC3)c2c1` (stereo not shown) [Example 70] as the compound, how does the pIC50 read?
**A.** The pIC50 was 6.85.

**Q.** How did the pIC50 turn out when `COc1cccnc1N1C[C@@H]2C[C@H]1CN2CCCc1c[nH]c2ccccc12` [Example 34] was run?
**A.** The pIC50 was 8.25.

**Q.** `COc1cc2[nH]cc(CCN3CCN(c4cccc(Cl)n4)CC3)c2cc1OC` [Example 48] was tested. Which pIC50 did it give?
**A.** Its pIC50 is 6.90.

**Q.** `Clc1cccnc1N1CCN(CCc2c[nH]c3ccccc23)CC1` [Example 42] was tested. Which pIC50 did it give?
**A.** The pIC50 was 6.28.

**Q.** `Clc1cccc(N2C[C@@H]3C[C@H]2CN3CCc2c[nH]c3ccccc23)n1` [Example 28] was tested. Which pIC50 did it give?
**A.** The pIC50 was 7.11.

**Q.** `COc1cccnc1N1CCN(CCCCc2c[nH]c3ccccc23)CC1` [Example 21, 1-[4-(1H-indol-3-yl)butyl]-4-(3-methoxy-2-pyridine-1)piperazine dihydrochloride] was tested. Which pIC50 did it give?
**A.** Its pIC50 is 7.24.

**Q.** How did the pIC50 turn out when `FC(F)(F)c1cccc(N2CCN(CCCc3c[nH]c4ccccc34)CC2)n1` [Example 30] was run?
**A.** Its pIC50 is 6.72.

**Q.** With `COc1ccc2[nH]cc(C3=CCC(N4CCN(c5cccc(Cl)n5)CC4)CC3)c2c1` (stereo not shown) [Example 23, 3-[4-[4-(6-Chloro-2-pvridinyl)-1-piperazinyl]-1cyclohexen-1-yl]-5-methoxy-1H-indole] as the compound, how does the pIC50 read?
**A.** The pIC50 was 7.00.

**Q.** How did the pIC50 turn out when `COc1cccnc1N1CCN(CCCc2c[nH]c3ccccc23)CC1` [Example 20, 1-[3-(1H-indol-3-yl)-propyl]-4-[3-methoxy-2-pyridinyl]piperazine dihydrochloride hydrate] was run?
**A.** The pIC50 was 8.96.

**Q.** `COc1cccnc1N1CCN(CCc2cn(C)c3ccccc23)CC1` [Example 47] was tested. Which pIC50 did it give?
**A.** The pIC50 was 7.62.

**Q.** With `CC1CN(c2cccc(Cl)n2)CCN1CCCc1c[nH]c2ccccc12` (stereo not shown) [Example 72] as the compound, how does the pIC50 read?
**A.** The pIC50 was 7.73.

**Q.** `COc1ccc2c(CCN3CCN(c4cccc(Cl)n4)CC3)c[nH]c2c1` [Example 65] was tested. Which pIC50 did it give?
**A.** The pIC50 was 6.87.

**Q.** How did the pIC50 turn out when `COc1ccc2[nH]cc(CCN3CCN(c4cccc(Cl)n4)CC3)c2c1` [Example 40] was run?
**A.** Its pIC50 is 6.75.

**Q.** With `Cn1cc(CCCN2CCN(c3cccc(Cl)n3)CC2)c2ccccc21` [Example 51] as the compound, how does the pIC50 read?
**A.** The pIC50 was 7.07.
